Assay results taken from US5525595A, “3- or 4-glycosyloxybenzopyran derivative and antiallergic agent containing the derivative as active ingredient” (priority 1993, dated 1996).

Experiments:
[1] = test system: airway resistance in experimental asthma model; assay: Effect on experimental asthma model in guinea pigs; type: in vivo, guinea pigs (Male hadley); settings: 100 mg/kg oral, OVA challenge, guinea pigs, Table 7; for inhibition in vivo at 100 mg/kg: Cavia porcellus
Protocol: The asthma is typical allergic disease and we carried out this pharmacological test by well known experimental asthma model in guinea pigs in order to confirm that the compounds of the present invention suppress the asthma. In the following, the method of the pharmacological test will be explained.
Method: Male hadley guinea pigs were immunized by intraperitoneal injection of saline (1 ml) containing 5 mg of ovalbumine (OVA) three times at interval of one week. 2 weeks after final immunization, the animals were challenged by inhalation of 1% OVA-saline solution for 1 minute and then the airway resistance of the animals were measured for 30 minutes with PULMOS-1 (Medical Interface Project Station Inc.) after the inhalation. The compounds of the present invention (test compounds) suspended in 0.5% CMCNa were given orally at a dose of 100 mg/kg. As positive control group, Disodium Cromoglicate (DSCG), well known anti-allergic agent, in saline were injected at a dose of 20 mg/kg into the vein of the animals. As vehicle control group, only 0.5% CMCNa solution were given orally. The inhibition (%) of the airway resistance in vehicle control group was calculated according to equation 5 and the result was shown in Table 7. Each experimental group consisted of 5 guinea pigs. [formula] In equation 5: A: Maximum airway resistance in vehicle control group
B: Maximum airway resistance in test compounds group or positive control group

[2] = test system: homologous passive cutaneous anaphylaxis (PCA) reaction; assay: Effect on homologous passive cutaneous anaphylaxis (PCA) reaction in rats; type: in vivo, rats (Male wistar rats); settings: 100 mg/kg oral, 1 hour before antigen, rats, Table 3; for inhibition in vivo at 100 mg/kg: Rattus norvegicus, 0.5 h
Protocol: This experimental animal model is caused by immediate type allergic reaction, namely, antigen-antibody reaction. In the following, the method of this pharmacological test will be explained.
Method: Male wistar rats (9 weeks old) were intradermally administered 0.05 ml of anti-serum against trinitrophenylated ascaris (TNP-As) into two sites on the shaved dorsal skin. 48 hours later, 3-glycosyloxybenzopyran derivatives and 4-glycosyloxybenzopyran derivatives (test compounds) suspended in 0.5% sodium carboxymethylcellulose (CMCNa) were given orally at a dose of 100 mg/kg to the animals. 1 hour after administration of Test compounds, the animals were induced anaphylaxis by injection of saline (1 ml) dissolving 5 mg of Evans Blue and 1 mg of TNP-As into the tail vein of the animals. 30 minutes after induction of anaphylaxis, animals were anesthetized by ether and killed by bleeding, and were flayed dorsal skin. The leakage of dye was assessed by measuring the diameter (mean of shortest and longest diameter) of the blue spot on the inside surface of dorsal skin. As vehicle control group, only 0.5% CMCNa solution was administered orally, and as positive control group, Tranilast suspended in 0.5% CMCNa were administered orally at a dose of 100 mg/kg to the animals with the same method as the test compounds groups. Each experimental group consisted of 5 rats. [formula] In equation 1: A: leakage of dye in vehicle control group
B: leakage of dye in test compound group or in positive control group
The anti-allergic activity of the compounds of the present invention were compared with that of analogous compounds which were published in the Patent (EP-A-0598117) by PCA reaction. This pharmacological test was performed according to the method described in Test Example 1.

[3] = test system: contact dermatitis induced by picryl chloride; assay: Effect on contact dermatitis induced by picryl chloride in mice (delayed type hypersensitization); type: in vivo; settings: 100 mg/kg oral, ear thickness 24 hours after challenge, Table 6; for inhibition in vivo at 100 mg/kg: Mus musculus, read-out: Inhibition (%) against the increase of ear thickness
Protocol: The delayed type hypersensitization is inhibited by steroid, but can not be effected by known anti-allergic agents. In the following, the method of the pharmacological test will be explained.
Method: Mice, shaved their abdominal skin on previous day, were immunized by applying 0.1 ml of acetone containing 7 mg of picryl chloride to the skin of the abdomen. 7 days after immunization, the thickness of the ear was measured with a dial thickness gauge, then mice were challenged by painting 5 μl of 1% picryl chloride olive oil solution to each side skin of left ear. 24 hours after challenge, the thickness of the left ear was measured again and the increase (%) of thickness was calculated according to equation 2. The compounds of the present invention (test compounds) suspended in 0.5% CMCNa were forcibly administered orally at a dose of 100 mg/kg at 1 hour before and 16 hours after challenge. As vehicle control group, only 0.5% CMCNa solution were administered orally, and as positive control group, Prednisolone, steroid hormone, and Tranilast were administered orally at the doses of 10 mg/kg and 100 mg/kg, respectively.
Increase (%)=(A-B)/B×100 (Equation 2)
A: thickness of the ear at 24 hours after challenge
B: thickness of the ear before challenge
Inhibition(%)=(C-D)/C×100 (equation 3)
C: The increase (%) in vehicle control group
D: The increase (%) in test compounds group or positive control group

Row | Compound | inhibition in vivo at 100 mg/kg [1] | inhibition in vivo at 100 mg/kg [2] | inhibition in vivo at 100 mg/kg [3] | Inhibition (%) of the airway resistance [1] | Inhibition (%) of PCA reaction [2] | Inhibition (%) against the increase of ear thickness [3]
1 | CCCCCCCCCCOc1ccc2c(O[C@@H]3O[C@H](CO)[C@H](O)[C@H](O)[C@H]3O)c(O)c(=O)oc2c1 [compound 95] | 75.4% | 65.1% | 65.1% |  |  | 
2 | CCCCOc1ccc2c(O[C@@H]3O[C@H](CO)[C@H](O)[C@H](O)[C@H]3O)c(OC(C)=O)c(=O)oc2c1 [compound 102] | 50.3% | 46.3% | 46.3% |  |  | 
3 | CC(C)=CCC/C(C)=C/COc1ccc2c(O[C@@H]3O[C@H](CO)[C@@H](O)[C@H](O)[C@H]3O)c(O)c(=O)oc2c1 [compound 71] | 65.2% | 57.4% | 57.1% |  |  | 
4 | COc1ccc2c(O)c(O[C@@H]3O[C@H](CO)[C@@H](O)[C@H](O)[C@H]3O)c(=O)oc2c1 [compound 5, 7-methoxy-4-hydroxy-3-(β-D-glucopyranosyloxy)-2H-1-benzopyran-2-one] | 62% | 48.7% | 51.2% |  |  | 
5 | O=c1oc2cc(O)ccc2c(O)c1O[C@@H]1O[C@H](CO)[C@@H](O)[C@H](O)[C@H]1O [compound 14] | 52.3% | 50.2% | 47.5% |  |  | 
6 | CCC=CCCOc1ccc2c(O[C@@H]3O[C@H](CO)[C@H](O)[C@H](O)[C@H]3O)c(O)c(=O)oc2c1 [compound 98] | 72.8% | 60.2% | 61.2% |  |  | 
7 | O=c1oc2cc(O)ccc2c(O)c1O[C@H]1O[C@H](CO)[C@@H](O)[C@H](O)[C@@H]1O [compound 23] | 46.6% | 47.8% | 45% |  |  | 
8 | CCCCCCCCCCCCOc1ccc2c(O)c(O[C@H]3O[C@H](CO)[C@@H](O)[C@H](O)[C@@H]3O)c(=O)oc2c1 [compound 26] | 66.3% | 53.3% | 55.9% |  |  | 
9 | CCCCCCCCCCOc1ccc2c(O[C@@H]3O[C@H](CO)[C@@H](O)[C@H](O)[C@H]3O)c(O)c(=O)oc2c1 [compound 67] | 70.6% | 60.4% | 63.8% |  |  | 
10 | CCCCCCOc1ccc2c(O)c(O[C@@H]3O[C@H](CO)[C@H](O)[C@H](O)[C@H]3O)c(=O)oc2c1 [compound 41] | 77.7% | 60.8% | 65.7% |  |  | 
11 | CC(=O)Oc1ccc2c(O)c(O[C@@H]3O[C@H](CO)[C@H](O)[C@H](O)[C@H]3O)c(=O)oc2c1 [compound 42] | 62.6% | 52.7% | 52.1% |  |  | 
12 | CCCCCCCCCCCCOc1ccc2c(O)c(O[C@@H]3O[C@H](CO)[C@@H](O)[C@H](O)[C@H]3O)c(=O)oc2c1 [compound 17] | 75% | 59.2% | 59.2% |  |  | 
13 | CCCCCCCCCCCCOc1ccc2c(O[C@@H]3O[C@H](CO)[C@@H](O)[C@H](O)[C@H]3O)c(O)c(=O)oc2c1 [compound 68] | 65.3% | 59.9% | 56.6% |  |  | 
14 | CCCCOc1ccc2c(O[C@@H]3O[C@H](CO)[C@@H](O)[C@H](O)[C@H]3O)c(O)c(=O)oc2c1 [compound 63, 7-butoxy-3-hydroxy-4-(β-D-glucopyranosyloxy)-2H-1-benzopyran-2-one] | 64.7% | 57.4% | 57.1% |  |  | 
15 | O=c1oc2cc(OCc3ccccc3)ccc2c(O)c1O[C@@H]1O[C@H](CO)[C@H](O)[C@H](O)[C@H]1O [compound 40] | 46.2% | 40.5% | 41.3% |  |  | 
16 | O=C(Oc1ccc2c(O)c(O[C@@H]3O[C@H](CO)[C@H](O)[C@H](O)[C@H]3O)c(=O)oc2c1)c1ccccc1 [compound 39] | 64.1% | 58.3% | 54.3% |  |  | 
17 | COc1ccc2c(O)c(O[C@H]3O[C@H](CO)[C@@H](O)[C@H](O)[C@@H]3O)c(=O)oc2c1 [compound 10, 7-methoxy-4-hydroxy-3-(α-D-mannopyranosyloxy)-2H-1-benzopyran-2-one] | 49% | 50.3% | 47.5% |  |  | 
18 | CC(C)Oc1ccc2c(O)c(O[C@H]3O[C@H](CO)[C@@H](O)[C@H](O)[C@@H]3O)c(=O)oc2c1 [compound 27] | 56.7% | 47.8% | 51.2% |  |  | 
19 | CCCCCCOc1ccc2c(O)c(O[C@@H]3O[C@H](CO)[C@@H](O)[C@H](O)[C@H]3O)c(=O)oc2c1 [compound 43] | 76.3% | 63.2% | 63.4% |  |  | 
20 | COc1ccc2c(O[C@H]3O[C@H](CO)[C@@H](O)[C@H](O)[C@@H]3O)c(OC(=O)c3ccccc3)c(=O)oc2c1 [compound 87] | 42.5% | 44.7% | 42.4% |  |  | 
21 | COc1ccc2c(OCc3ccccc3)c(O[C@@H]3O[C@H](COC(C)=O)[C@@H](OC(C)=O)[C@H](OC(C)=O)[C@@H]3OC(C)=O)c(=O)oc2c1 [compound 6, 7-methoxy-4-benzyloxy-3-(tetra-O-acetyl-β-D-mannopyranosyloxy)-2H-1-benzopyran-2-one] |  |  |  | 38.5% | 42.3% | 41.9%
22 | CCCCCCCCOc1ccc2c(O)c(O[C@@H]3O[C@H](CO)[C@@H](O)[C@H](O)[C@H]3O)c(=O)oc2c1 [compound 16] | 75.8% | 62.6% | 64% |  |  | 
23 | CC(=O)Oc1ccc2c(O[C@@H]3O[C@H](CO)[C@H](O)[C@H](O)[C@H]3O)c(O)c(=O)oc2c1 [compound 105] | 58.8% | 51.4% | 47.8% |  |  | 
24 | O=c1oc2cc(OCc3ccccc3)ccc2c(O[C@H]2O[C@H](CO)[C@@H](O)[C@H](O)[C@@H]2O)c1O [compound 90] | 40.5% | 45.3% | 38.4% |  |  | 
25 | O=C(Oc1ccc2c(O[C@@H]3O[C@H](CO)[C@H](O)[C@H](O)[C@H]3O)c(O)c(=O)oc2c1)c1ccccc1 [compound 100] | 67.8% | 42.6% | 44.9% |  |  | 
26 | COc1ccc2c(O[C@@H]3O[C@H](CO)[C@@H](O)[C@H](O)[C@H]3O)c(O)c(=O)oc2c1 [compound 61, 7-methoxy-3-hydroxy-4-(β-D-glucopyranosyloxy)-2H-1-benzopyran-2-one] | 53.3% | 49.2% | 50.7% |  |  | 
